In patent US11219670B2, “Targeting CAPN9/CAPNS2 activity as a therapeutic strategy for the treatment of myofibroblast differentiation and associated pathologies” (The Johns Hopkins University, priority 2014, dated 2022):
Where a SMILES comes first, the peptide text is derived from it. The star is where a group is joined. Cbz = O=C(OCc1ccccc1)*; Boc = CC(C)(C)OC(=O)*

T1: Human recombinant mini-CAPN9 (Homo sapiens, UniProt O14815)
T1 construct: made in house; host or cells: E. coli
T1 sequence (O14815 42-337 limits assumed): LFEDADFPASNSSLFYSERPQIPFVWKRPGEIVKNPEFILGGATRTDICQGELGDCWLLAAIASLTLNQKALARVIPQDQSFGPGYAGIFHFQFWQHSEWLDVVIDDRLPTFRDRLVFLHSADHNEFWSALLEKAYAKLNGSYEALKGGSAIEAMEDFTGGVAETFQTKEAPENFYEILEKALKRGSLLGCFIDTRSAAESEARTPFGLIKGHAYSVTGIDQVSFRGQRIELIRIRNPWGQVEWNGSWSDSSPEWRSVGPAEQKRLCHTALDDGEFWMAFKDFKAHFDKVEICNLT

B1: calpastatin: endogenous calpain inhibitor, mouse calpastatin overexpressed from a bicistronic vector with GFP (protein, UniProt P51125 1-788, looked up)
Calpastatin: MSQPGPKPAASPRPSRGAAARHTQEHVNEKNIGSSSKPGEKKGSDEKKAASLGSSQPSRPHVGEAATATKVTASSAATSKSPSMSTTETKAIPVNKQLEGPDQKRPREQAVKTESKKPQSSEQPVVHEKKSKGGPKEGSEPKNLPKHTSSTGSKHAHKEKALSRSNEQMVSEKPSESKTKFQDVPSAGGESVAGGGTVATALDKVVGKKKEQKPFTPASPVQSTPSKPSDKSGMDAALDDLIDTLGGHEDTNRDDPPYTGPVVLDPMYSTYLEALGIKEGTIPPEYRKLLEKNEGITQPLPDSPKPMGTDQAIDALSSDFTCSSPTGKQSEKEKSTGEIFKAQSAGVTRSSVPPKEKKRKVEEEVINDQALQALSDSLGTRQPDPPSHVSQAEQVKEAKAKEERQEKCGEDEDTVPAEYRLKPAKDKDGKPLLPEPEETSKSLSESELIGELSADFDRSTYQDKPSTPAEKKSNDTSQTPPGETVPRASMCSIRSAPPKLASLKGVVPEDAVETLAGSLGTREADPEHEKTVEDKVKEKAKEEEHEKLGEKEETVPPDYRLEEVKDKDGKPLLPKESQEQLAPLSDDFLLDALSQDFSSPANISSLEFEDAKLSAAISEVVSQTPAPSTHAAAPLPGTEQKDKELDDALDELSDSLGQRPPDPDENKPLDDKVKEKIKPEHSEKLGERDDTIPPEYRHLLDNDGKDKPEKPPTKKTEKPDQDRDPIDALSEDLDSCPSTTETSKNTAKGKSKKTSSSKASKDGEKTKDSSKKTEEVSKPKAKEDARHS
modifications: co-expressed with GFP

Experiments:
NMuMG cells [1] = test: TGFβ1-induced EpMT in NMuMG cells (αSMA western blot, qPCR, immunofluorescence); assay type: cell-based, Mouse; conditions: for TGFβ1-induced EpMT as measured by αSMA expression: western blot
Experimental: (§1) (FIG. 1B; Levels were normalized to the 72 h TGFβ1 only treated sample for each blot. Students t-test *p<0.05, **p<0.01, † p<0.005, †† p<0.001). […] (FIG. 1H; Levels were normalized to the 72 h TGFβ1 only treated sample for each blot. Students t-test *p<0.05, **p<0.01, † p<0.005, †† p<0.001). FIG. 1G and FIG. 1H show the small molecule […] SB431542 suppressed TGFβ-induced calpain activity (as measured by cleavage of Filamin A, a known calpain substrate) and TGFβ-induced phosphorylation of SMAD2, as measured by western blot (FIG. 1H) and quantified western blot data done in biological replicates (FIG. 1H; Levels were normalized to the 72 h TGFβ1 only treated sample for each blot. Student's t-test *p<0.05, **p<0.01, † p<0.005, †† p<0.001).). […] NMuMG cells pretreated with TGFβ1 for 72 hours to induce EMT, and then treated with calpain inhibitor MDL-28170 while in the continued presence of TGFβ1 for an additional 48 h or 72 h post-induction, can revert to a more epithelial phenotype as assessed by αSMA expression by western blot (FIG. 1I) and quantified western blot data done in biological replicates (FIG. 1J; Levels were normalized to TGFβ1 only treated samples within each time point. Students t-test *p<0.05).
Calpain inhibition was also found to suppress TGFβ-induced expression of genes commonly and functionally associated with fibrosis, such as collagen 1A1, vimentin and matrix metalloproteinase 2/9 (FIG. 1C). A profound decrease in E-cadherin, a cell surface protein highly expressed by epithelial cells, was observed by immunofluorescence upon stimulation with TGFβ but was prevented by treatment with calpain inhibitor MDL-28170 (FIG. 1D). […] (FIG. 1F). […]

[2] = tested on: calpain activity (cleavage of Filamin A); test: TGFβ-induced calpain activity in NMuMG cells (cleavage of Filamin A, western blot); assay type: cell-based, Mouse
Experimental: (§2) (FIG. 1B; Levels were normalized to the 72 h TGFβ1 only treated sample for each blot. Students t-test *p<0.05, **p<0.01, † p<0.005, †† p<0.001). […] (FIG. 1H; Levels were normalized to the 72 h TGFβ1 only treated sample for each blot. Students t-test *p<0.05, **p<0.01, † p<0.005, †† p<0.001).

phosphorylation of SMAD2 = test: TGFβ-induced phosphorylation of SMAD2 in NMuMG cells (western blot); assay type: cell-based, Mouse
Experimental: as §2

[3] = target: T1, Human recombinant mini-CAPN9; test: Biochemical assay for calpain 9 inhibition (FRET peptide substrate, FLIPR); conditions: IC50 by 4 parameter logistic fitting; 10 min preincubation; ambient temperature
Experimental: Human recombinant mini-CAPN9 was expressed in E. coli and purified as described in Davis, T. L., et al. (2007) J Mol Biol 366(1): 216-229.
All enzyme reactions are run at ambient temperature (˜25° C.) in black 384 well assay plates. Inhibitors solutions in DMSO are typically semi-log serially diluted prior to further dilution in assay buffer (Tris-HCl 20 mM, KCl 100 mM, BSA 0.1%, 1 mM DTT). Calpain enzyme stocks are diluted in assay buffer without Ca (II) just prior to use (1 μM) and incubated with serially diluted test compounds at 2× concentrations in the assay plate for 10 min.
After the compound preincubation, the FLIPR liquid handler is used to initiate the reaction by adding a 2× mix of substrate (1 μM Calpain FRET peptide substrate (5-FAM/QXL 520) Anaspec (Catalog# AS-72149)) and Ca (II) (10 mM). Reactions are measured using a FLIPR Tetra reader (Molecular Devices Inc).
Slopes (reaction rates) are calculated within the 0-2 min interval using the ScreenWorks software (Molecular Devices Inc). Slopes are plotted versus test compound concentration to obtain dose-response curves. IC50 values are obtained using 4 parameter logistic fitting.

MDCK cells = test: TGFβ-induced EpMT in MDCK cells (αSMA western blot); assay type: cell-based, Canine
NMuMG cells [4] = test: Reversal of pre-established TGFβ-induced myofibroblast differentiation in NMuMG cells (mesenchymal-to-epithelial transition); assay type: cell-based, Mouse; conditions: NMuMG pretreated with TGFβ 72 h, 48 h and 72 h post-induction
Experimental: as §1
If TGFβ-induced calpain activity is necessary to maintain myofibroblast differentiation, suppression of calpain activity after pre-establishment of myofibroblast differentiation should be sufficient for mesenchymal-to-epithelial transition and provide evidence supporting reversal of a disease state.

[5] = tested on: Primary Normal Human Lung Fibroblasts (NHLF); test: TGFβ1-induced FMT in NHLF cells (αSMA western blot); assay type: cell-based
Source text: Resident fibroblasts have also been described to undergo transformation in the presence of high TGFβ. Using Primary Normal Human Lung Fibroblasts (NHLF), it was shown that treatment with calpain inhibitor MDL-28170 (FIG. 8A and FIG. 8B) or siRNA mediated knockdown of CAPNS2 (FIG. 8C) can inhibit TGFβ1-induced FMT as measured by αSMA.

PAVEC = test: TGFβ1-induced EnMT in PAVEC (qPCR, immunofluorescence); assay type: cell-based
Source text: (FIG. 7B; E-cadherin shown in green, vimentin shown in red, DAPI nuclear marker shown in blue. Scale bar=100 μm). […] Scale bar=100 μm);
Myofibroblasts can derive from cell types other than those of epithelial origin, including endothelial cells and fibroblasts. […] (FIG. 7B). Overexpression of calpastatin inhibits TGFβ1-induced EnMT in PAVEC as measured from gene expression of αSMA, vimentin, E-cadherin, MMP2 and MMP9 (FIG. 7C) and inhibits morphological changes associated with EnMT, such as downregulation of E-cadherin/cell-cell adhesion and upregulation of vimentin. (FIG. 7D).

Molecule	TGFβ1-induced EpMT as measured by αSMA expression (NMuMG cells [1])	TGFβ-induced calpain activity (cleavage of Filamin A) [2]	TGFβ-induced phosphorylation of SMAD2 (phosphorylation of SMAD2)	IC50 [3] [µM]	also measured
NCCOB(c1ccccc1)c1ccccc1 [2-APB, 2-aminoethoxydiphenyl borate]	able to inhibit TGFβ1-induced αSMA expression at high doses	suppressed	without significantly affecting	–	–
O=C1Nc2ccc([N+](=O)[O-])cc2C1=O [5-Nitroisatin]	–	–	–	42.3	–
CC(C)[C@H](NC(=O)CNC(=O)OC(C)(C)C)C(=O)N[C@H](C=O)C(C)C [Boc-Gly-Val-Val-CHO] (Boc-Gly-Val-Val-aldehyde)	–	–	–	6.68	–
CSCC[C@@H](C=O)NC(=O)[C@H](CC(C)C)NC(=O)[C@H](CC(C)C)NC(C)=O [Calpain Inhibitor II (ALLM)] (Ac-Leu-Leu-Met-aldehyde)	–	–	–	3.32	–
CC(C)C[C@@H](C=O)NC(=O)[C@@H](NS(=O)(=O)c1ccc(F)cc1)C(C)C [Calpain Inhibitor IV SJA-6017]	–	–	–	2.23	–
CCCC[C@@H](C=O)NC(=O)[C@H](CC(C)C)NC(=O)OCc1ccccc1 [Calpeptin]	suppresses	suppressed	without significantly affecting	2.84	–
CC(C)CCNC(=O)[C@H](CC(C)C)NC(=O)[C@H]1O[C@@H]1C(=O)O [E-64-C]	–	–	–	35.8	–
CC(C)C[C@H](NC(=O)[C@H]1O[C@@H]1C(=O)O)C(=O)NCCCCNC(=N)N [E-64]	–	–	–	11.6	–
C=CC[C@@H]1/C=C(\C)C[C@H](C)C[C@H](OC)[C@H]2O[C@@](O)(C(=O)C(=O)N3CCCC[C@H]3C(=O)O[C@H](/C(C)=C/[C@@H]3CC[C@@H](O)[C@H](OC)C3)[C@H](C)[C@@H](O)CC1=O)[C@H](C)C[C@@H]2OC [FK506, tacrolimus]	able to potently suppress	–	–	–	–
CC(=O)N[C@@H](CC(C)C)C(=O)N[C@@H](CC(C)C)C(=O)N[C@H](C=O)CCCNC(=N)N [Leupeptin Hemisulfate]	–	–	–	9.24	–
CC(C)[C@H](NC(=O)OCc1ccccc1)C(=O)N[C@H](C=O)Cc1ccccc1 [MDL-28170] (Cbz-Val-Phe-aldehyde)	antagonize TGFβ1-induced EpMT	suppressed	without significantly affecting	1.61	TGFβ1-induced reorganization of the actin cytoskeleton to stress fibers (NMuMG cells [1]; immunofluorescence): blocked; TGFβ-induced decrease in E-cadherin (NMuMG cells [1]; immunofluorescence): prevented; TGFβ-induced expression of genes associated with myofibroblast differentiation and/or fibrosis (Col1A1, Vimentin, MMP2, MMP9) (NMuMG cells [1]; quantitative PCR): suppresses; TGFβ-induced EpMT as measured from αSMA expression (MDCK cells): suppresses TGFβ-induced EpMT in MDCK cells; E-cadherin expression after pre-established myofibroblast differentiation (NMuMG cells [4]): reacquired expression of the epithelial marker E-cadherin; actin cytoskeleton organisation after pre-established myofibroblast differentiation (NMuMG cells [4]): reorganized their actin cytoskeleton from stress fibers to cortical actin; αSMA expression after pre-established myofibroblast differentiation (NMuMG cells [4]; continued TGFβ1): decreased expression of αSMA; TGFβ1-induced FMT as measured by αSMA [5]: can inhibit
CC(C)C[C@@H](C=O)NC(=O)[C@H](CC(C)C)NC(=O)[C@H](CC(C)C)NC(=O)OCc1ccccc1 [MG-132] (Cbz-Leu-Leu-Leu-aldehyde)	–	–	–	9.88	–
CCC(C)[C@H](NS(=O)(=O)c1cccc2ccccc12)C(=O)N[C@H](C=O)Cc1c[nH]c2ccccc12 (stereo partly drawn) [NapSul-Ile-Trp-CHO]	–	–	–	6.25	–
NC(=O)c1ccc(-c2nc(-c3ccc4c(c3)OCO4)c(-c3ccccn3)[nH]2)cc1 [SB431542]	did not show	did not show	did not show	–	–
CC(C)C[C@@H](C=O)NC(=O)[C@H](CC(C)C)NC(=O)OCc1ccccc1 [Z-Leu-Leu-CHO]	–	–	–	2.35	–
NS8593	able to potently inhibit	suppressed	without significantly affecting	–	TGFβ1-induced FMT as measured by αSMA [5]: able to suppress
B1	virtually no αSMA protein	suppressed	without affecting	–	morphological changes associated with EnMT (downregulation of E-cadherin/cell-cell adhesion, upregulation of vimentin) (PAVEC; immunofluorescence): inhibits; TGFβ1-induced EnMT as measured from gene expression of αSMA, vimentin, E-cadherin, MMP2 and MMP9 (PAVEC; quantitative PCR): inhibits
